The structures appear in SMILES notation.

For 74 compounds, logP results are on record in the SangsterLogP compilation.

The data set can be described thus: method code SF-AS, from DOI: 10.1002/jps.2600800814, PMID: 1791539.
With `COc1cncc(C(N)=O)n1`, the logP was 0.13. Then `CC(=O)Nc1cncc(Cl)n1`, with 1.1; and `COC(=O)c1nccnc1C(=O)OC`, with -0.02. Then `Clc1cnc(Cl)cn1`, with 1.58. Then `COc1cnc(N)cn1`, with 0.63; and `Cc1nccnc1OC(C)C`, with 2.24.

Take `CSc1nccnc1C`: the logP worked out at 1.81. The compound `Clc1cncc(Cl)n1` came in with a log partition coefficient (logP) of 1.53. The figure for `COc1cnc(N(C)C)cn1` is 1.65. The figure for `COc1cnc(OC)cn1` is 1.14; for `COc1cncc(C#N)n1` it is 0.95; for `CN(C)c1cncc(Cl)n1` it is 1.95. In the case of `CCCOc1cncc(Cl)n1`, the logP turned out to be 2.71. Then `Cc1cncc(C#N)n1`, with 0.44; and `CN(C)c1cncc(C#N)n1`, with 1.12. Then `CCCCc1nc(C#N)c(C#N)nc1Cl`, with 2.89.

As to `CCCc1nccnc1C`, the logP stood at 1.57.

The compound `COc1cncc(N)n1` yielded a logP of 0.73. Then `CCc1nccnc1CC`, with 1.51; and `CC(=O)Nc1cncc(C)n1`, with 0.38.

Regarding `COC(=O)c1cncc(N(C)C)n1`, the logP was 0.9. The figure for `NC(=O)c1cncc(Cl)n1` is 0.28; for `Cc1cncc(Cl)n1` it is 1.03. Then `CCOC(=O)c1nccnc1C(=O)OCC`, with 0.65; and `N#Cc1ncc(Cl)nc1C#N`, with 0.95; and `Cc1nc(C#N)c(C#N)nc1Cl`, with 1.29. The compound `Nc1cnc(Cl)cn1` gave a logP of 0.67. Turning to `COc1nccnc1C`, the log partition coefficient (logP) was found to be 1.24.

The compound `CN(C)c1cnc(Cl)cn1` yielded a log partition coefficient (logP) of 1.7.

The compound `CCOc1cncc(OCC)n1` registered a lipophilicity (logP) of 2.55.

Regarding `CCc1nccnc1OC`, the logP came to 1.8. Then `Cc1cnc(Cl)cn1`, with 1.08; and `CCOC(=O)c1cnc(C)cn1`, with 0.61. Then `COc1cncc(C)n1`, with 1.29. `CCc1nc(C#N)c(C#N)nc1Cl` displayed a logP of 1.79.

Turning to `N#Cc1nccnc1C#N`, the logP was 0.38.

The compound `COC(=O)c1cnc(C)cn1` showed a log partition coefficient (logP) of 0.17. In turn, `Cc1nc(C)c(C)nc1C` came in with a lipophilicity (logP) of 1.28. The figure for `CCOC(=O)c1cncc(OC)n1` is 1.2; for `Cc1cncc(N)n1` it is 0.35; for `CN(C)c1cncc(C(N)=O)n1` it is 0.38. Then `Nc1cncc(N)n1`, with -0.45.

The compound `Cc1cnc(C)c(Cl)n1` came in with a logP of 1.5. The figure for `Nc1cncc(Cl)n1` is 0.95. `Fc1cncc(Cl)n1`: the lipophilicity (logP) came out at 1.15.

For `Cc1cnc(C(N)=O)cn1`, the lipophilicity (logP) is -0.25.

Compound `CCOc1cncc(C(N)=O)n1` displayed a logP of 0.61. Regarding `CC(=O)Nc1cnc(Cl)cn1`, the lipophilicity (logP) is 0.56. Then `Cc1nccnc1C`, with 0.54. Then `Cc1cncc(N(C)C)n1`, with 1.57; and `CCCCc1nc(C#N)c(C#N)nc1C`, with 2.3; and `CCOc1cncc(OC)n1`, with 1.98.

As to `CCOc1cncc(Cl)n1`, the logP stood at 2.22.

`CCOC(=O)c1cncc(N(C)C)n1` showed a lipophilicity (logP) of 1.24. The figure for `COc1cncc(OC)n1` is 1.58; for `COc1cncc(Cl)n1` it is 1.65. Then `COC(=O)c1cncc(OC)n1`, with 0.69; and `Cc1cncc(C(N)=O)n1`, with -0.13. The figure for `COc1cncc(N(C)C)n1` is 1.99; for `CCOc1nccnc1C` it is 1.82; for `CCCCc1nccnc1C` it is 2.1. Compound `Cc1cncc(C)n1` came in with a lipophilicity (logP) of 0.54. The figure for `CCOC(=O)c1cncc(C)n1` is 0.51. Then `CCOc1cnc(Cl)cn1`, with 1.99; and `COC(=O)c1cncc(C)n1`, with 0.1.

`N#Cc1cncc(Cl)n1` returned a logP of 0.79. Then `CCc1ncc(C)nc1CC`, with 1.95; and `Fc1cncc(F)n1`, with 0.74. The figure for `COC(=O)c1cncc(Cl)n1` is 0.47; for `Cc1cnc(C)c(C)n1` it is 0.95. The compound `Cc1cnc(C#N)cn1` came in with a logP of 0.26. On to `COc1cncc(NC(C)=O)n1`, for which the lipophilicity (logP) came to 0.82. The figure for `CCc1nccnc1C` is 1.07; for `COc1cnc(Cl)cn1` it is 1.52.

For orientation: logP means a log measure of how a compound divides between an organic and an aqueous phase. A higher logP goes with a more lipophilic compound.
